Measured values as given in PubChem BioAssay AID2060618 (Molecular Pharmacology Branch, DTP, NCI, 2025).
Values belong to the compound of their own block, whether it stands above or below them.

System: 454973-116-R2-J3-PDC spheroids, percent test/control viability
Test: Anticancer human tumor 454973-116-R2-J3-PDC patient-derived pancreatic carcinoma cell line growth inhibition [CLK]
Details: spheroids with HUVEC and MSC; for IC50: curve of first compound; for viability, T/C: stronger effect = lower value
Procedure, shortened: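 Patient-derived tumor cells grown as complex spheroids with HUVEC endothelial cells and mesenchymal stem cells, treated with drug combinations. Concentrations descend in half-log steps from near clinical Cmax, or from 10 microM if Cmax unknown.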
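Also: spheroids exposed to compounds for 7 days before readout.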

- IC50 (second compound 0.0316 µM): > 300 nM
- IC50 (second compound 0.1 µM): > 300 nM
- IC50 (second compound 0.316 µM): < 0.949 nM
- IC50 (second compound 1 µM): < 0.949 nM
- IC50 (second compound 3.16 µM): < 0.949 nM
- IC50 (second compound 10 µM): < 0.949 nM
Structure (SMILES): C=CC(=O)Nc1cc(Nc2nccc(-c3cn(C)c4ccccc34)n2)c(OC)cc1N(C)CCN(C)C + CNC(=O)c1ccc(Nc2nc(OC3CCCC3)c3c(-c4ccc5nc(C)oc5c4)c[nH]c3n2)c(OC)c1
- viability, T/C (second compound 0.0316 µM, first compound 0.000949 µM): 106%
- viability, T/C (second compound 0.0316 µM, first compound 0.003 µM): 108%
- viability, T/C (second compound 0.0316 µM, first compound 0.00949 µM): 92.5%
- viability, T/C (second compound 0.0316 µM, first compound 0.03 µM): 107%
- viability, T/C (second compound 0.0316 µM, first compound 0.0949 µM): 104%
- viability, T/C (second compound 0.0316 µM, first compound 0.3 µM): 101%
- viability, T/C (second compound 0.1 µM, first compound 0.000949 µM): 95.9%
- viability, T/C (second compound 0.1 µM, first compound 0.003 µM): 106%
- viability, T/C (second compound 0.1 µM, first compound 0.00949 µM): 90.7%
- viability, T/C (second compound 0.1 µM, first compound 0.03 µM): 80.9%
- viability, T/C (second compound 0.1 µM, first compound 0.0949 µM): 69.7%
- viability, T/C (second compound 0.1 µM, first compound 0.3 µM): 61%
- viability, T/C (second compound 0.316 µM, first compound 0.000949 µM): 43.8%
- viability, T/C (second compound 0.316 µM, first compound 0.003 µM): 36.4%
- viability, T/C (second compound 0.316 µM, first compound 0.00949 µM): 30.5%
- viability, T/C (second compound 0.316 µM, first compound 0.03 µM): 34.8%
- viability, T/C (second compound 0.316 µM, first compound 0.0949 µM): 36.4%
- viability, T/C (second compound 0.316 µM, first compound 0.3 µM): 32.7%
- viability, T/C (second compound 1 µM, first compound 0.000949 µM): 27.9%
- viability, T/C (second compound 1 µM, first compound 0.003 µM): 30.9%
- viability, T/C (second compound 1 µM, first compound 0.00949 µM): 30.5%
- viability, T/C (second compound 1 µM, first compound 0.03 µM): 29.8%
- viability, T/C (second compound 1 µM, first compound 0.0949 µM): 34.5%
- viability, T/C (second compound 1 µM, first compound 0.3 µM): 33.9%
- viability, T/C (second compound 3.16 µM, first compound 0.000949 µM): 29.9%
- viability, T/C (second compound 3.16 µM, first compound 0.003 µM): 28.3%
- viability, T/C (second compound 3.16 µM, first compound 0.00949 µM): 26.7%
- viability, T/C (second compound 3.16 µM, first compound 0.03 µM): 27.8%
- viability, T/C (second compound 3.16 µM, first compound 0.0949 µM): 31.1%
- viability, T/C (second compound 3.16 µM, first compound 0.3 µM): 22.1%
- viability, T/C (second compound 10 µM, first compound 0.000949 µM): 33.9%
- viability, T/C (second compound 10 µM, first compound 0.003 µM): 24%
- viability, T/C (second compound 10 µM, first compound 0.00949 µM): 21.9%
- viability, T/C (second compound 10 µM, first compound 0.03 µM): 25.4%
- viability, T/C (second compound 10 µM, first compound 0.0949 µM): 27.9%
- viability, T/C (second compound 10 µM, first compound 0.3 µM): 20.4%

- IC50 (second compound 0.0316 µM): 1620 nM
- IC50 (second compound 0.1 µM): 1660 nM
- IC50 (second compound 0.316 µM): < 31.6 nM
- IC50 (second compound 1 µM): < 31.6 nM
- IC50 (second compound 3.16 µM): < 31.6 nM
- IC50 (second compound 10 µM): < 31.6 nM
Structure (SMILES): Nc1ccccc1NC(=O)c1ccc(CNC(=O)OCc2cccnc2)cc1 + CNC(=O)c1ccc(Nc2nc(OC3CCCC3)c3c(-c4ccc5nc(C)oc5c4)c[nH]c3n2)c(OC)c1
- viability, T/C (second compound 0.0316 µM, first compound 0.0316 µM): 97.2%
- viability, T/C (second compound 0.0316 µM, first compound 0.1 µM): 102%
- viability, T/C (second compound 0.0316 µM, first compound 0.316 µM): 87.2%
- viability, T/C (second compound 0.0316 µM, first compound 1 µM): 69.4%
- viability, T/C (second compound 0.0316 µM, first compound 3.16 µM): 25.1%
- viability, T/C (second compound 0.0316 µM, first compound 10 µM): 5.57%
- viability, T/C (second compound 0.1 µM, first compound 0.0316 µM): 107%
- viability, T/C (second compound 0.1 µM, first compound 0.1 µM): 95.9%
- viability, T/C (second compound 0.1 µM, first compound 0.316 µM): 91.8%
- viability, T/C (second compound 0.1 µM, first compound 1 µM): 69%
- viability, T/C (second compound 0.1 µM, first compound 3.16 µM): 26.8%
- viability, T/C (second compound 0.1 µM, first compound 10 µM): 6.74%
- viability, T/C (second compound 0.316 µM, first compound 0.0316 µM): 46.9%
- viability, T/C (second compound 0.316 µM, first compound 0.1 µM): 40.4%
- viability, T/C (second compound 0.316 µM, first compound 0.316 µM): 42.2%
- viability, T/C (second compound 0.316 µM, first compound 1 µM): 31.3%
- viability, T/C (second compound 0.316 µM, first compound 3.16 µM): 19%
- viability, T/C (second compound 0.316 µM, first compound 10 µM): 5.37%
- viability, T/C (second compound 1 µM, first compound 0.0316 µM): 29.1%
- viability, T/C (second compound 1 µM, first compound 0.1 µM): 27.1%
- viability, T/C (second compound 1 µM, first compound 0.316 µM): 23.6%
- viability, T/C (second compound 1 µM, first compound 1 µM): 28.6%
- viability, T/C (second compound 1 µM, first compound 3.16 µM): 16.8%
- viability, T/C (second compound 1 µM, first compound 10 µM): 3.41%
- viability, T/C (second compound 3.16 µM, first compound 0.0316 µM): 28.7%
- viability, T/C (second compound 3.16 µM, first compound 0.1 µM): 30.1%
- viability, T/C (second compound 3.16 µM, first compound 0.316 µM): 24.4%
- viability, T/C (second compound 3.16 µM, first compound 1 µM): 27.1%
- viability, T/C (second compound 3.16 µM, first compound 3.16 µM): 17.2%
- viability, T/C (second compound 3.16 µM, first compound 10 µM): 2.74%
- viability, T/C (second compound 10 µM, first compound 0.0316 µM): 26.9%
- viability, T/C (second compound 10 µM, first compound 0.1 µM): 24.5%
- viability, T/C (second compound 10 µM, first compound 0.316 µM): 21.1%
- viability, T/C (second compound 10 µM, first compound 1 µM): 21.8%
- viability, T/C (second compound 10 µM, first compound 3.16 µM): 16.8%
- viability, T/C (second compound 10 µM, first compound 10 µM): 2.21%
